From US20260137828A1, “COMPOSITIONS AND METHODS INVOLVING PROBIOTIC MOLECULES” (MICROSINTESIS INC., priority 2017, published 2026)

Assays:
[1] = tested on: Staphylococcus aureus (strain alias LA-414M SPA t034); assay: Cefoxitin MIC testing with and without cell-free supernatant; assay type: cell-based; details: MRSA LA 414M
Source text: (§1) Three methicillin resistant Staphylococci (MRS) strains were used in these experiments: 1) Staphylococcus pseudintermedius (strain alias C260 22-2011 dtqa), a clinical isolate from a dog skin infection; 2) Staphylococcus aureus (strain alias LA-414M SPA t034), a livestock-associated strain isolated from beef purchased from a grocery store in Charlottetown, PEI, Canada; and 3) Staphylococcus aureus (strain alias 81M SPA t008), isolated from poultry meat purchased from a grocery store in Charlottetown, PEI, Canada. All three MRS strains were provided by the Atlantic Veterinary College (AVC) at the University of Prince Edward Island. The methicillin-resistance of these strains was confirmed by AVC staff using an oxacillin disk diffusion method. The strains were originally cultured on sheep blood agar slants, and then transferred to lysogeny broth agar plates. Cefoxitin resuspended in methanol was used for antibiotic resistance testing, and growth was tested in two different media types, standard Lysogeny Broth and standard BBL™ Cation-Adjusted Mueller-Hinton Medium (Becton, Dickinson and Company). The minimum inhibitory concentrations (MICs) of the cefoxitin was determined for each strain in each respective medium in the presence and absence of the cell-free supernatant. Assays were performed according to the Clinical and Laboratory Standards Institute (CLSI) guidelines for MIC testing of Staphylococcal species [CLSI, 2015] as well as the European Committee for Antimicrobial Susceptibility Testing (EUCAST) of the European Society of Clinical Microbiology and Infectious Diseases [EUCAST, 2003].
(§2) The protocol for MIC testing was as follows. The cell-free supernatants were resuspended in the respective media and filter sterilized through a […] pore size filter. The required concentration of dried cell free supernatant was weighed and added at concentrations ranging from 0-60 mg/mL. Cefoxitin was added to obtain final concentrations ranging from 0-250 μg/mL. Cultures of each respective strain were grown overnight in either lysogeny broth or Mueller Hinton for 16-20 hours at 37° C. and 200 rpm shaking in aerobic conditions to achieve optical densities at 600 nm (OD600) of 1.2-1.6. […] The cultures (150 μL) were grown in a 96-well clear flat-bottom microtiter plate. The microtiter plate was then covered in parafilm and incubated at 35° C.±2° C. for 24 hours. Following incubation, microplates were read at 600 nm using a microplate reader. […] The data is the average from two technical replicates from two biological replicates.

[2] = tested on: Staphylococcus pseudintermedius (strain alias C260 22-2011 dtqa); assay: as above; assay type: cell-based; details: MSRP C260, Lysogeny Broth
Source text: as §1, §2

[3] = tested on: Staphylococcus aureus (strain alias 81M SPA t008); assay: Cefoxitin MIC testing with and without cell-free supernatant or size exclusion fractions; assay type: cell-based
Source text: as §1, §2
For the size exclusion chromatography the sample was separated using a Sephadex G75 resin. The samples were separated and collected into fractions: Fraction 1 (>163000 Da), Fraction 2 (163000-14500 Da), Fraction 3 (14500-1300 Da), Fraction 4 (1300-110 Da), Fraction 5 (110-10 Da).

HilA = assay: qPCR of HilA down-regulation in Salmonella; assay type: cell-based, Salmonella enterica typhimurium DT104; details: reference 16S, individual synthetic biopeptides, 50 μg per assay
Source text: The cell-free supernatant was separated using Sephadex G75 resin. The samples were separated and collected into fractions: Fraction 1 (>163000 Da), Fraction 2 (163000-14500 Da), Fraction 3 (14500-1300 Da), Fraction 4 (1300-110 Da), Fraction 5 (110-10 Da). The samples were collected and assayed by qPCR using Salmonella enterica typhimurium DT104 strain. The down-regulation of HilA was compared to the reference gene 16S.
The active fraction from G75 size exclusion chromatography was further separated using reverse phase chromatography. The fractions from the reverse phase: Fraction 1 (0-2 min), Fraction 2 (2-4 min), Fraction 3 (4-16 min), Fraction 4 (16-32 min), Fraction 5 (32-40 min), Fraction 6 (40-58 min). The fractions were dried and neutralized to remove acetonitrile and trifluoroacetic acid from the solvent. The dried fractions were assayed using the same qPCR assay conditions as above. The fractions were analyzed by de novo sequencing at the University of Guelph Advance Analytical center. The peptides from the active fractions of 6 batches were compared and common peptides from batches were deduced.
Additionally, the 1×sample from each probiotic culture was tested using the Salmonella qPCR assay described in example 1 or a Lactate Dehydrogenase (LDH) assay using either UPEC 099 or Staphylococcus aureus 81M. For the LDH assay the dried cell-free supernatant was resuspended into 5 mL of lysogeny broth and inoculated with either UPEC 099 or Staphylococcus aureus 81M and incubated for 4 hours. After incubation, the samples were centrifuged and the supernatant was assayed. A 100 μL aliquot of supernatant was added to 1 mL mammalian HT29 cells at 1×10^6 cells per mL in a 12-well plate. The samples were incubated for 45 minutes at 37° C. and 5% CO2. The supernatant was then assayed using the manufacture's protocol (Pierce LDH Cytotoxicity assay kit, Thermo Scientific, Rockford, Il, USA). The percent inhibition was calculated using the no treatment control and a detergent lysed control using the formula provided in the protocol (Table 3).

HylA = details: reference GapA, individual synthetic biopeptides, 50 μg per assay
Procedure: The La-5 cell-free supernatant used for these experiments was batch D4. […] Strain 1 alias UPEC99 and strain 2 alias UPEC804. The strains were cultured on LB agar. Two different media were tested LB and artificial urine medium.
The UPEC were grown for 4 hours in the presence of cell-free supernatant. The cells were harvested and the RNA was extracted. The RNA was treated with DNAse I to remove genomic DNA. The RNA was used as a template to make cDNA. The cDNA was assayed by qPCR and the gene expression was normalized to a reference gene and compared to a without cell-free media control.
The synthetic bio-peptides were analyzed at 50 μg per assay.

MRSA = details: after a 24 hour incubation; cited from earlier work

CO[C@@]1(NC(=O)Cc2cccs2)C(=O)N2C(C(=O)O)=C(COC(N)=O)CS[C@@H]21 [cefoxitin]
Range of Cefoxitin concentration to inhibition growth to O.D. <0.1 ([1]; Lysogeny Broth, 0 mg/mL dried cell-free supernatant): 30 to 40 µg/mL
Range of Cefoxitin concentration to inhibition growth to O.D. <0.1 ([1]; Lysogeny Broth, 5 mg/mL dried cell-free supernatant): 15 to 20 µg/mL
Range of Cefoxitin concentration to inhibition growth to O.D. <0.1 ([1]; Lysogeny Broth, 30 mg/mL dried cell-free supernatant): 15 to 20 µg/mL
Range of Cefoxitin concentration to inhibition growth to O.D. <0.1 ([1]; Lysogeny Broth, 60 mg/mL dried cell-free supernatant): 10 to 15 µg/mL
Range of Cefoxitin concentration to inhibition growth to O.D. <0.1 ([1]; Mueller-Hinton Broth, 0 mg/mL dried cell-free supernatant): 50 to 60 µg/mL
Range of Cefoxitin concentration to inhibition growth to O.D. <0.1 ([1]; Mueller-Hinton Broth, 5 mg/mL dried cell-free supernatant): 40 to 50 µg/mL
Range of Cefoxitin concentration to inhibition growth to O.D. <0.1 ([1]; Mueller-Hinton Broth, 30 mg/mL dried cell-free supernatant): 20 to 30 µg/mL
Range of Cefoxitin concentration to inhibition growth to O.D. <0.1 ([1]; Mueller-Hinton Broth, 60 mg/mL dried cell-free supernatant): 20 to 30 µg/mL
Range of Cefoxitin concentration to inhibition growth to O.D. <0.1 ([2]; 0 mg/mL dried cell-free supernatant): 125 to 175 µg/mL
Range of Cefoxitin concentration to inhibition growth to O.D. <0.1 ([2]; 5 mg/mL dried cell-free supernatant): 50 to 75 µg/mL
Range of Cefoxitin concentration to inhibition growth to O.D. <0.1 ([2]; 30 mg/mL dried cell-free supernatant): 20 to 30 µg/mL
Range of Cefoxitin concentration to inhibition growth to O.D. <0.1 ([2]; 60 mg/mL dried cell-free supernatant): 20 to 30 µg/mL
Range of Cefoxitin concentration to inhibition growth to O.D. <0.1 ([3]; MRSA 81M, Lysogeny Broth, 0 mg/mL dried cell-free supernatant): 75 to 125 µg/mL
Range of Cefoxitin concentration to inhibition growth to O.D. <0.1 ([3]; MRSA 81M, Lysogeny Broth, 5 mg/mL dried cell-free supernatant): 40 to 50 µg/mL
Range of Cefoxitin concentration to inhibition growth to O.D. <0.1 ([3]; MRSA 81M, Lysogeny Broth, 30 mg/mL dried cell-free supernatant): 30 to 40 µg/mL
Range of Cefoxitin concentration to inhibition growth to O.D. <0.1 ([3]; MRSA 81M, Lysogeny Broth, 60 mg/mL dried cell-free supernatant): 30 to 40 µg/mL
Range of Cefoxitin concentration to inhibition growth to O.D. <0.1 ([3]; MRSA 81M, Mueller-Hinton Broth, 0 mg/mL dried cell-free supernatant): 75 to 100 µg/mL
Range of Cefoxitin concentration to inhibition growth to O.D. <0.1 ([3]; MRSA 81M, Mueller-Hinton Broth, 5 mg/mL dried cell-free supernatant): 40 to 50 µg/mL
Range of Cefoxitin concentration to inhibition growth to O.D. <0.1 ([3]; MRSA 81M, Mueller-Hinton Broth, 30 mg/mL dried cell-free supernatant): 30 to 40 µg/mL
Range of Cefoxitin concentration to inhibition growth to O.D. <0.1 ([3]; MRSA 81M, Mueller-Hinton Broth, 60 mg/mL dried cell-free supernatant): 20 to 30 µg/mL
Range of Cefoxitin concentration to inhibition growth to O.D. <0.1 ([3]; Staphylococcus aureus 81M, control, cefoxitin only (0 mg/mL), Table 5): 60 to 75 µg/mL

CVLPPK
Fold down-regulation (HilA): 3.75 Fold
Fold down-regulation (HylA): 3.20 Fold

HLLPLP
Fold down-regulation (HilA): 2.93 Fold
Fold down-regulation (HylA): 2.64 Fold

LKPTPEGD
Fold down-regulation (HilA): 11.08 Fold
Fold down-regulation (HylA): 4.69 Fold

Lactobacillus acidophilus
MRSA cells eliminated (MRSA): 99%

MALPPK
Fold down-regulation (HilA): 19.56 Fold
Fold down-regulation (HylA): 9.06 Fold

YPPGGP
Fold down-regulation (HilA): 2.93 Fold
Fold down-regulation (HylA): 3.56 Fold

YPVEPF
Fold down-regulation (HilA): 0.68 Fold
Fold down-regulation (HylA): 1.03 Fold
